Series [1] has as its system corneal barrier of the in vitro cornea device (epithelial, fibroblast, endothelial triculture). The experiment in a line: Permeability of the in vitro cornea device to FSS after trypan blue exposure. It is filed as cell-based. Particulars: trypan blue injected into TFEp channel at 3 μL/min for 4 min, incubated at 37° C. for 15 min; then FSS injected into TFEp channel and permeability assayed; worded "can be". As for the experimental part:
(§1) In some embodiments, all channels of the device can be coated with human fibronectin to facilitate cellular attachment. For example, primary human corneal fibroblasts can be seeded on Day 0. Fibroblasts can be harvested, concentrated to 1×10^7 cells/mL and injected into the stromal chamber via a remote head syringe pump at 5 μL/min until cells are homogenously distributed. Devices can then be incubated at 37° C., 5% CO2 for 4 hours to allow for attachment. Media can be subsequently refreshed every 24 hours. Primary human corneal epithelial cells can be seeded into the TFEp circulation channel on Day 3. […]
(§2) Viability can be assessed on-chip as an endpoint for epithelial, fibroblast, and endothelial cells. Devices are prepared for viability quantitation by incubation with calcein AM and ethidium homodimer in PBS. After rinsing the cells with PBS, fluorescent images are taken via microscope, and the data was analyzed to determine cornea triculture viability (scc, FIG. 5A). […]
Following exposure, FSS can be injected into the TFEp channel and permeability assayed. […] Samples can be taken from cell-laden channels (individually or combined) and placed in a low volume, white walled […] plate for luminescence analysis using a plate reader. […] The increase in AK release in arbitrary luminescence units compares the toxic exposure of trypan blue to positive and negative controls. […]

Series [2] concerns cells of the in vitro cornea device (cell-laden channels). Briefly: Cytotoxicity by adenylate kinase release (luminescence) from the cell-laden channels of the in vitro cornea device. It is filed as cell-based. To be noted: trypan blue exposure; compared with positive control (100% death by lysis buffer) and negative control (media only); arbitrary luminescence units; worded "expected". The method, then: as §1, §2
Following exposure, FSS can be injected into the TFEp channel and permeability assayed. […] Samples can be taken from cell-laden channels (individually or combined) and placed in a low volume, white walled […] plate for luminescence analysis using a plate reader. […] The increase in AK release in arbitrary luminescence units compares the toxic exposure of trypan blue to positive and negative controls.

For `Cc1cc(-c2ccc(/N=N/c3c(S(=O)(=O)O)cc4cc(S(=O)(=O)O)cc(N)c4c3O)c(C)c2)ccc1/N=N/c1c(S(=O)(=O)O)cc2cc(S(=O)(=O)O)cc(N)c2c1O` [trypan blue], the “Permeability in trypan blue treated devices compared to controls” value in series [1] is listed as 10 fold. In addition, the “Increase in adenylate kinase release” value in series [2] was determined as 1.5 fold.

Values taken from patent publication US20240197166A1, “COMPUTATIONAL IN SILICO MODEL FOR CORNEA BARRIER” (CFD Research Corporation, priority 2022, published 2024).
